According to paper PMC6291207 (ChemMedChem, 2018):

Experiments:
CRBN = CRBN (Homo sapiens, UniProt Q96SW2); assay: SPR binding assay with immobilized His-tagged CRBN; details: for Kd: read-out: CRBN Kd, surface plasmon resonance, average of at least 2 experiments, errors = standard error of the mean, N.B. = no binding observed
MM1S cells = details: read-out: IC50 inhibition of cell proliferation, 72 hours, MTS assay
Aiolos = Aiolos (Homo sapiens, UniProt Q96SW2+Q9UKT9); details: for Dmax (maximal degradation achieved), Aiolos: MM1S cells, 24 hours treatment, normalized to tubulin
Sequence of Aiolos (Q9UKT9 whole entry): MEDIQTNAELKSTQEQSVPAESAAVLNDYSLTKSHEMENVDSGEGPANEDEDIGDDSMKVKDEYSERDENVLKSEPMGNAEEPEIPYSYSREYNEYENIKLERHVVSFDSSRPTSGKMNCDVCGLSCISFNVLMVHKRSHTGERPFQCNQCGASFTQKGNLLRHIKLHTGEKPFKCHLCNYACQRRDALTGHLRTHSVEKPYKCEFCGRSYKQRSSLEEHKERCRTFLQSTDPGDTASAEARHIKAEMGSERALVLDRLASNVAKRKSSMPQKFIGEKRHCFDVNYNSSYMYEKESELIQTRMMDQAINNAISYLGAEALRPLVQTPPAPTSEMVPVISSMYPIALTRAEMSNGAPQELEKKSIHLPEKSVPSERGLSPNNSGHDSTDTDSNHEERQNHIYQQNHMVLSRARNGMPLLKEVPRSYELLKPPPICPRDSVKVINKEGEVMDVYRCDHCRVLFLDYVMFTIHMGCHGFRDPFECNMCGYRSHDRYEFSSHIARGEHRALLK
Sequence of Aiolos (Q96SW2 whole entry): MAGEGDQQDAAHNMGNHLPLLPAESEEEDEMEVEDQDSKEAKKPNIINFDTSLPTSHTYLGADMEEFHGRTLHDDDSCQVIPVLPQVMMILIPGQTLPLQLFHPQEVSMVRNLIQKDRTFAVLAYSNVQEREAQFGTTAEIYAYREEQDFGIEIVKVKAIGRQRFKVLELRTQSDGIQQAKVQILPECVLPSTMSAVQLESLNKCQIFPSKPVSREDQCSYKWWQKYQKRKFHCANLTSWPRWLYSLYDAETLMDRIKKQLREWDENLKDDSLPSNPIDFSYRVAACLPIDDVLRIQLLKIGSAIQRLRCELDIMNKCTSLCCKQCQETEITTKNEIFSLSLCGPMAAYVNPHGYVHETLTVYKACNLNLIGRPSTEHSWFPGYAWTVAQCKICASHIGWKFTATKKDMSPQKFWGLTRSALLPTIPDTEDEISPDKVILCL
Sequence of Aiolos (Q16531 whole entry partner): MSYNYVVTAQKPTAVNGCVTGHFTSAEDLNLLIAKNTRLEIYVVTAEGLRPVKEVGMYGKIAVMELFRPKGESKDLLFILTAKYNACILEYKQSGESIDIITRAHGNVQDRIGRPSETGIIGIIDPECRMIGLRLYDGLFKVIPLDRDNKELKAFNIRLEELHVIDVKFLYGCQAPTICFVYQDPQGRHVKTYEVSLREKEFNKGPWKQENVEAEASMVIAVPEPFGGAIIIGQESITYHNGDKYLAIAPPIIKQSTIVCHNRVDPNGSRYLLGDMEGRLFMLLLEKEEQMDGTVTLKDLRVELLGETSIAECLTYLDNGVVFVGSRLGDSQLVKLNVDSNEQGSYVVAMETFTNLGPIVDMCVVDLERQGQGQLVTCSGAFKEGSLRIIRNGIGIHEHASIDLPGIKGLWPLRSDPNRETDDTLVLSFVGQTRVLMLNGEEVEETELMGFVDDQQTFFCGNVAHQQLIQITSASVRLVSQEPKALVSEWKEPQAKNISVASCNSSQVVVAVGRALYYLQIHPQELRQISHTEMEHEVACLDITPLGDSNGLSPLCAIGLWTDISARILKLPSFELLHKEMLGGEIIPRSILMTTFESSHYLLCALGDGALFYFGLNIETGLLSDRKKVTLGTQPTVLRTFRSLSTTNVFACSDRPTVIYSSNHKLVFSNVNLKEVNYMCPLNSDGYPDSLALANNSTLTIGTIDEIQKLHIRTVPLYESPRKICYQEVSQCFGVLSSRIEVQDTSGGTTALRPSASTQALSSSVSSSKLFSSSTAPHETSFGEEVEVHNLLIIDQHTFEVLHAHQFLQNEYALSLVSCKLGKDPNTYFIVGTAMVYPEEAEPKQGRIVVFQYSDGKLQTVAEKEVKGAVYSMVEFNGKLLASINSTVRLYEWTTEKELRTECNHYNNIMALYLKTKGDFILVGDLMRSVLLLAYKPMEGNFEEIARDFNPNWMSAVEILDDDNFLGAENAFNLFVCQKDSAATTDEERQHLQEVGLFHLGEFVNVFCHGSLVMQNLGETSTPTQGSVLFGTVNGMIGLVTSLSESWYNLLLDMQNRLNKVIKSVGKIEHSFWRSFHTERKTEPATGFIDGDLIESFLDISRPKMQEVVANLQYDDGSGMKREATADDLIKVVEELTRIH

Sequence of CRBN (Q96SW2 whole entry): as the sequence (Q96SW2 whole entry) above

**Q.** Which results are given for `Cc1cccc2c1C(=O)N(C1CCC(=O)NC1=O)C2=O` (centres unmarked) [Compound 19]?
**A.** Kd (CRBN): 325 ± 24 nM; IC50 (MM1S cells): 128 nM; Dmax (maximal degradation achieved), Aiolos (Aiolos): 85%

**Q.** How did the “fold less affinity for CRBN than Pomalidomide and Compound 19” value (CRBN; compared with Pomalidomide and Compound 19) turn out when `O=C1CCC(N2C(=O)c3cccc(F)c3C2=O)C(=O)N1` (centres unmarked) [Compound 17] was run?
**A.** roughly 2 fold

**Q.** What about the Kd (CRBN) of the same molecule?
**A.** 558 ± 51 nM

**Q.** What about the IC50 (MM1S cells) of the same molecule?
**A.** 3570 nM

**Q.** And the “Dmax (maximal degradation achieved), Aiolos” value (Aiolos)?
**A.** 83%

**Q.** For `Nc1cccc2c1C(=O)N(C1CCC(=O)NC1=O)C2=O` (centres unmarked) [Compound 13, Pomalidomide, reference compound], which Dmax (Aiolos; MM1.S, read-out: Dmax (maximal degradation achieved), Aiolos) is on record?
**A.** > 95%
